Measured values: patent US20230340011A1 (Asteroid Therapeutics, priority 2022, published 2023)

How the values were obtained:
[1] = target: LXRβ (Homo sapiens (Human), UniProt P55055); assay: In vitro assay LXRβ: PathHunter NHR CHO cells, LXRβ / Steroid Receptor Co-activator Peptide enzyme fragment complementation; type: cell-based; settings: PathHunter NHR CHO cells, full-length human LXRβ and SRCP, chemiluminescent signal; read-out: LXRβ PPI
Experimental: PathHunter NHR CHO cells stably transfected with tagged full-length human LXRβ and a nuclear fusion protein containing Steroid Receptor Co-activator Peptide (SRCP). The full-length human LXRβ was tagged with the ProLink™ component of the DiscoverX Enzyme Fragment Complementation (EFC) system and the SRCP domain is fused to the enzyme acceptor component (EA) expressed in the nucleus. Cells were seeded in a total volume of 20 μL into white walled, 384-well microplates and incubated at 37° C. overnight prior to testing. Assay media contained charcoal-dextran filtered serum to reduce the level of hormones present. Final assay vehicle concentration was 1%. […] Microplates were read following signal generation with a PerkinElmer Envision instrument for chemiluminescent signal detection.

[2] = target: SREBP-2 (Homo sapiens (Human), UniProt Q12772); assay: In vitro assay SREBP-2: PathHunter U2OS SREBP-2 Nuclear Translocation Cell Line, U18666A-stimulated; type: cell-based; settings: PathHunter U2OS SREBP-2 nuclear translocation cells, U18666A 10 μM, overnight (16 hours)

Sequence of LXRβ (P55055 whole entry, the tested form may be a part): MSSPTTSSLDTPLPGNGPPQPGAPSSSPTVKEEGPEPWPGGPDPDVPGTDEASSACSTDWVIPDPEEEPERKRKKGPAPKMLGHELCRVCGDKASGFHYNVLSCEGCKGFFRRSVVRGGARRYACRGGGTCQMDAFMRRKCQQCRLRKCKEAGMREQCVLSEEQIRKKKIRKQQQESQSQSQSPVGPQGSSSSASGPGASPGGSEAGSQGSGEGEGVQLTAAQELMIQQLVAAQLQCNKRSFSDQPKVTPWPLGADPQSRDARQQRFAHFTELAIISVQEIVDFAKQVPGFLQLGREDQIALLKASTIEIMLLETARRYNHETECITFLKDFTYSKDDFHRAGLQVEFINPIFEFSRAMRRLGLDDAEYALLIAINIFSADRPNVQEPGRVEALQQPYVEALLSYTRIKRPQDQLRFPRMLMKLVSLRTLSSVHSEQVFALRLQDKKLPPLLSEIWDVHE

SMILES	EC50 [1] [µM]	IC50 [2] [µM]
C[C@H](OC(=O)C(N)=O)[C@H]1CC[C@H]2[C@@H]3CC=C4C[C@@H](O)CC[C@]4(C)[C@H]3CC[C@]12C [Example 144, (S)-1-((3S,8S,9S,10R,13S,14S,17S)-3-hydroxy-10,13-dimethyl-2,3,4,7,8,9,10,11,12,13,14,15,16,17-tetradecahydro-1H-cyclopenta[a]phenanthren-17-yl)ethyl 2-amino-2-oxoacetate]	> 10	–
CC(=O)N1CCN(C(=O)CC[C@@H](C)[C@H]2CC[C@H]3[C@@H]4CC=C5C[C@@H](O)CC[C@]5(C)[C@H]4CC[C@]23C)C[C@@H]1C [Example 277, (R)-1-((S)-4-acetyl-3-methylpiperazin-1-yl)-4-((3S,8S,9S,10R,13R,14S,17R)-3-hydroxy-10,13-dimethyl-2,3,4,7,8,9,10,11,12,13,14,15,16,17-tetradecahydro-1H-cyclopenta[a]phenanthren-17-yl)pentan-1-one]	> 10	–
C[C@H](CCC(=O)N1CC[C@H](Oc2ccncn2)C1)[C@H]1CC[C@H]2[C@@H]3CC=C4C[C@@H](O)CC[C@]4(C)[C@H]3CC[C@]12C [Example 216, (4R)-4-[(1R,3aS,3bS,7S,9aR,9bS,11aR)-7-hydroxy-9a,11a-dimethyl-1H,2H,3H,3aH,3bH,4H,6H,7H,8H,9H,9aH,9bH,10H,11H,11aH-cyclopenta[a]phenanthren-1-yl]-1-[(3S)-3-(pyrimidin-4-yloxy)pyrrolidin-1-yl]pentan-1-one]	> 10	–
C[C@H](CCC(=O)N1CCN(c2ncccn2)CC1)[C@H]1CC[C@H]2[C@@H]3CC=C4C[C@@H](O)CC[C@]4(C)[C@H]3CC[C@]12C [Example 305, (R)-4-((3S,8S,9S,10R,13R,14S,17R)-3-hydroxy-10,13-dimethyl-2,3,4,7,8,9,10,11,12,13,14,15,16,17-tetradecahydro-1H-cyclopenta[a]phenanthren-17-yl)-1-(4-(pyrimidin-2-yl)piperazin-1-yl)pentan-1-one]	> 10	–
C[C@H](CCC(=O)N1CCN(c2cnn(C)c2)CC1)[C@H]1CC[C@H]2[C@@H]3CC=C4C[C@@H](O)CC[C@]4(C)[C@H]3CC[C@]12C [Example 214, (R)-4-((3S,8S,9S,10R,13R,14S,17R)-3-hydroxy-10,13-dimethyl-2,3,4,7,8,9,10,11,12,13,14,15,16,17-tetradecahydro-1H-cyclopenta[a]phenanthren-17-yl)-1-(4-(1-methyl-1H-pyrazol-4-yl)piperazin-1-yl)pentan-1-one]	> 10	–
C[C@H](CCC(=O)N1CCC(Oc2ccncc2)CC1)[C@H]1CC[C@H]2[C@@H]3CC=C4C[C@@H](O)CC[C@]4(C)[C@H]3CC[C@]12C [Example 301, (4R)-4-[(1R,3aS,3bS,7S,9aR,9bS,11aR)-7-hydroxy-9a,11a-dimethyl-1H,2H,3H,3aH,3bH,4H,6H,7H,8H,9H,9aH,9bH,10H,11H,11aH-cyclopenta[a]phenanthren-1-yl]-1-[4-(pyridin-4-yloxy)piperidin-1-yl]pentan-1-one]	> 10	–
C[C@H]1CON(C(=O)CC[C@@H](C)[C@H]2CC[C@H]3[C@@H]4CC=C5C[C@@H](O)CC[C@]5(C)[C@H]4CC[C@]23C)C1 [Example 58, (R)-4-((3S,8S,9S,10R,13R,14S,17R)-3-hydroxy-10,13-dimethyl-2,3,4,7,8,9,10,11,12,13,14,15,16,17-tetradecahydro-1H-cyclopenta[a]phenanthren-17-yl)-1-((R)-4-methylisoxazolidin-2-yl)pentan-1-one]	0.25 to 1	–
CC(=O)N1CCN(C(=O)CC[C@@H](C)[C@H]2CC[C@H]3[C@@H]4CC=C5C[C@@H](O)CC[C@]5(C)[C@H]4CC[C@]23C)[C@@H](C)C1 [Example 428, (4R)-4-[(1R,3aS,3bS,7S,9aR,9bS,11aR)-7-hydroxy-9a,11a-dimethyl-1H,2H,3H,3aH,3bH,4H,6H,7H,8H,9H,9aH,9bH,10H,11H,11aH-cyclopenta[a]phenanthren-1-yl]-1-[(2S)-4-acetyl-2-methylpiperazin-1-yl]pentan-1-one]	> 10	–
CCCCN(OC)C(=O)CC[C@@H](C)[C@H]1CC[C@H]2[C@@H]3CC=C4C[C@@H](O)CC[C@]4(C)[C@H]3CC[C@]12C [Example 17, (R)—N-butyl-4-((3S,8S,9S,10R,13R,14S,17R)-3-hydroxy-10,13-dimethyl-2,3,4,7,8,9,10,11,12,13,14,15,16,17-tetradecahydro-1H-cyclopenta[a]phenanthren-17-yl)-N-methoxypentanamide]	1 to 10	–
CCN(OC)C(=O)CC[C@@H](C)[C@H]1CC[C@H]2[C@@H]3CC=C4C[C@@H](O)CC[C@]4(C)[C@H]3CC[C@]12C [Example 11, (R)—N-ethyl-4-((3S,8S,9S,10R,13R,14S,17R)-3-hydroxy-10,13-dimethyl-2,3,4,7,8,9,10,11,12,13,14,15,16,17-tetradecahydro-1H-cyclopenta[a]phenanthren-17-yl)-N-methoxypentanamide]	0.25 to 1	–
CC(NC(=O)C(C)(C)O)C1CCN(C(=O)CC[C@@H](C)[C@H]2CC[C@H]3[C@@H]4CC=C5C[C@@H](O)CC[C@]5(C)[C@H]4CC[C@]23C)CC1 (stereo partly drawn) [Example 227, 2-hydroxy-N-(1-(1-((R)-4-((3S,8S,9S,10R,13R,14S,17R)-3-hydroxy-10,13-dimethyl-2,3,4,7,8,9,10,11,12,13,14,15,16,17-tetradecahydro-1H-cyclopenta[a]phenanthren-17-yl)pentanoyl)piperidin-4-yl)ethyl)-2-methylpropanamide]	> 10	–
CC(=O)N1CCN(C(=O)CC[C@@H](C)[C@H]2CC[C@H]3[C@@H]4CC=C5C[C@@H](O)CC[C@]5(C)[C@H]4CC[C@]23C)[C@@H](C)C1 [Example 276, (4R)-4-[(1R,3aS,3bS,7S,9aR,9bS,11aR)-7-hydroxy-9a,11a-dimethyl-1H,2H,3H,3aH,3bH,4H,6H,7H,8H,9H,9aH,9bH,10H,11H,11aH-cyclopenta[a]phenanthren-1-yl]-1-[(2S)-4-acetyl-2-methylpiperazin-1-yl]pentan-1-one]	> 10	–
C[C@H](CCC(=O)N(C)OC1CCCC1)[C@H]1CC[C@H]2[C@@H]3CC=C4C[C@@H](O)CC[C@]4(C)[C@H]3CC[C@]12C [Example 61, (R)-4-((3S,8S,9S,10R,13R,14S,17R)-3-hydroxy-10,13-dimethyl-2,3,4,7,8,9,10,11,12,13,14,15,16,17-tetradecahydro-1H-cyclopenta[a]phenanthren-17-yl)-N-(methyl)-N-cyclopentoxypentanamide]	1 to 10	–
CC(=O)N1CCN(C(=O)CC[C@@H](C)[C@H]2CC[C@H]3[C@@H]4CC=C5C[C@@H](O)CC[C@]5(C)[C@H]4CC[C@]23C)C[C@H]1C [Example 278, (R)-1-((R)-4-acetyl-3-methylpiperazin-1-yl)-4-((3S,8S,9S,10R,13R,14S,17R)-3-hydroxy-10,13-dimethyl-2,3,4,7,8,9,10,11,12,13,14,15,16,17-tetradecahydro-1H-cyclopenta[a]phenanthren-17-yl)pentan-1-one]	> 10	–
Cc1ccnc(OC[C@@H](C)[C@H]2CC[C@H]3[C@@H]4CC=C5C[C@@H](O)CC[C@]5(C)[C@H]4CC[C@]23C)c1 [Example 262, (1R,3aS,3bS,7S,9aR,9bS,11aS)-9a,11a-dimethyl-1-[(2S)-1-[(4-methylpyridin-2-yl)oxy]propan-2-yl]-1H,2H,3H,3aH,3bH,4H,6H,7H,8H,9H,9aH,9bH,10H,11H,11aH-cyclopenta[a]phenanthren-7-ol]	–	< 0.25
CC(=O)N1CCN(C(=O)CC[C@@H](C)[C@H]2CC[C@H]3[C@@H]4CC=C5C[C@@H](O)CC[C@]5(C)[C@H]4CC[C@]23C)CC1 [Example 3, (R)-1-(4-acetylpiperazin-1-yl)-4-((3S,8S,9S,10R,13R,14S,17R)-3-hydroxy-10,13-dimethyl-2,3,4,7,8,9,10,11,12,13,14,15,16,17-tetradecahydro-1H-cyclopenta[a]phenanthren-17-yl)pentan-1-one]	–	< 0.25
CNC(=O)NC[C@@H](C)[C@H]1CC[C@H]2[C@@H]3CC=C4C[C@@H](O)CC[C@]4(C)[C@H]3CC[C@]12C [Example 239, 1-((S)-2-((3S,8S,9S,10R,13S,14S,17R)-3-hydroxy-10,13-dimethyl-2,3,4,7,8,9,10,11,12,13,14,15,16,17-tetradecahydro-1H-cyclopenta[a]phenanthren-17-yl)propyl)-3-methylurea]	–	0.25 to 1
C[C@H](CCC(=O)N1CCC(CN2CCOC(C)(C)C2=O)CC1)[C@H]1CC[C@H]2[C@@H]3CC=C4C[C@@H](O)CC[C@]4(C)[C@H]3CC[C@]12C [Example 522, 4-({1-[(4R)-4-[(1R,3aS,3bS,7S,9aR,9bS,11aR)-7-hydroxy-9a,11a-dimethyl-1H,2H,3H,3aH,3bH,4H,6H,7H,8H,9H,9aH,9bH,10H,11H,11aH-cyclopenta[a]phenanthren-1-yl]pentanoyl]piperidin-4-yl}methyl)-2,2-dimethylmorpholin-3-one]	–	< 0.25
Cc1cncc(O[C@@H](C)[C@H]2CC[C@H]3[C@@H]4CC=C5C[C@@H](O)CC[C@]5(C)[C@H]4CC[C@]23C)c1 [Example 272, (3S,8S,9S,10R,13S,14S,17S)-10,13-dimethyl-17-((S)-1-((5-methylpyridin-3-yl)oxy)ethyl)-2,3,4,7,8,9,10,11,12,13,14,15,16,17-tetradecahydro-1H-cyclopenta[a]phenanthren-3-ol]	–	< 0.25
